Source: patent US20230233569A1 (Revolution Medicines, Inc., priority 2020, published 2023)
Where two headings read alike, the source gives them in different places.

Key:
Test in all cases: Ras-Raf disruption / FRET / MOA assay (BRAF RBD)
Assay type in all cases: biochemical
[1] = biological target: KRAS G13D (Homo sapiens, UniProt P01116+P62937, G13D); conditions: with Cyclophilin A
Text: (§1) Disruption of […] Ras-binding Domain (BRAF^RBD) Interaction with K-Ras by Compounds of the Invention (also Called a FRET Assay or an MOA Assay)
(§2) Note—The following protocol describes a procedure for monitoring disruption of K-Ras G12C (GMP-PNP) binding to BRAF^RBD by a compound of the invention. This protocol may also be executed substituting other Ras proteins or nucleotides, such as K-Ras G12D and K-Ras G13D.
(§3) The purpose of this biochemical assay was to measure the ability of test compounds to facilitate ternary complex formation between a nucleotide-loaded K-Ras isoform and Cyclophilin A; the resulting ternary complex disrupts binding to a BRAF^RBD construct, inhibiting K-Ras signaling through a RAF effector. Data is reported as IC50 values.
(§4) In assay buffer containing 25 mM HEPES pH 7.3, 0.002% Tween20, 0.1% BSA, 100 mM NaCl and 5 mM MgCl2, tagless Cyclophilin A, His6-K-Ras-GMPPNP, and GST-BRAF^RBD were combined in a 384-well assay plate at final concentrations of 25 μM, 12.5 nM, and 50 nM, respectively. Compound was present in plate wells as a 10-point 3-fold dilution series starting at a final concentration of 30 μM. After incubation at 25° C. for 3 hours, a mixture of anti-His Eu-W1024 and anti-GST allophycocyanin was then added to assay sample wells at final concentrations of 10 nM and 50 nM, respectively, and the reaction incubated for an additional 1.5 hours. […] Compounds that facilitate disruption of a K-Ras:RAF complex were identified as those eliciting a decrease in the TR-FRET ratio relative to DMSO control wells.

[2] = biological target: KRAS WT (Homo sapiens, UniProt P01116+P62937); conditions: with Cyclophilin A
Text: as §1, §2, §3, §4

[3] = biological target: NRAS G12C (Homo sapiens, UniProt P01111+P62937, G12C)
Text: as §1, §2, §3, §4

[4] = biological target: KRAS G12V (Homo sapiens, UniProt P01116+P62937, G12V); conditions: with Cyclophilin A
Text: as §1, §2, §3, §4

[5] = biological target: KRAS G12D (Homo sapiens, UniProt P01116+P62937, G12D); conditions: with Cyclophilin A
Text: as §1, §2, §3, §4

[6] = biological target: KRAS G13C (Homo sapiens, UniProt P01116+P62937, G13C); conditions: with Cyclophilin A
Text: as §1, §2, §3, §4

[7] = biological target: KRAS G12S (Homo sapiens, UniProt P01116+P62937, G12S); conditions: with Cyclophilin A
Text: as §1, §2, §3, §4

[8] = biological target: KRAS G12C (Homo sapiens, UniProt P01116+P62937, G12C); conditions: with Cyclophilin A
Text: as §1, §2, §3, §4
The purpose of this biochemical assay is to measure the ability of test compounds to facilitate ternary complex formation between a nucleotide-loaded Ras isoform and cyclophilin A; the resulting ternary complex disrupts binding to a BRAF^RBD construct, inhibiting Ras signaling through a RAF effector.
In assay buffer containing 25 mM HEPES pH 7.3, 0.002% Tween20, 0.1% BSA, 100 mM NaCl and 5 mM MgCl2, tagless Cyclophilin A, His6-K-Ras-GMPPNP (or other Ras variant), and GST-BRAF^RBD are combined in a 384-well assay plate at final concentrations of 25 μM, 12.5 nM and 50 nM, respectively. Compound is present in plate wells as a 10-point 3-fold dilution series starting at a final concentration of 30 μM. After incubation at 25° C. for 3 hours, a mixture of Anti-His Eu-W1024 and anti-GST allophycocyanin is then added to assay sample wells at final concentrations of 10 nM and 50 nM, respectively, and the reaction incubated for an additional 1.5 hours. […] Compounds that facilitate disruption of a Ras:RAF complex are identified as those eliciting a decrease in the TR-FRET ratio relative to DMSO control wells.

[9] = KRAS G13D FRET data IC50, Ras-Raf disruption
[10] = KRAS WT FRET data IC50, Ras-Raf disruption
[11] = NRAS G12C FRET data IC50, NRAS G12C
[12] = KRAS G12V FRET data IC50, Ras-Raf disruption
[13] = KRAS G12D FRET data IC50, Ras-Raf disruption
[14] = KRAS G13C FRET data IC50, Ras-Raf disruption
[15] = KRAS G12S FRET data IC50, Ras-Raf disruption
[16] = KRAS G12C FRET data IC50, Ras-Raf disruption
[17] = Ras-Raf disruption, read-out: KRAS G13D FRET data IC50
[18] = Ras-Raf disruption, read-out: KRAS WT FRET data IC50
[19] = NRAS G12C, read-out: NRAS G12C FRET data IC50
[20] = Ras-Raf disruption, read-out: KRAS G12V FRET data IC50
[21] = Ras-Raf disruption, read-out: KRAS G12D FRET data IC50
[22] = Ras-Raf disruption, read-out: KRAS G13C FRET data IC50
[23] = Ras-Raf disruption, read-out: KRAS G12S FRET data IC50
[24] = Ras-Raf disruption, read-out: KRAS G12C FRET data IC50

Measured: IC50

Chain of KRAS G12C (P01116 1-169 isoform P01116-2 G12C limits assumed): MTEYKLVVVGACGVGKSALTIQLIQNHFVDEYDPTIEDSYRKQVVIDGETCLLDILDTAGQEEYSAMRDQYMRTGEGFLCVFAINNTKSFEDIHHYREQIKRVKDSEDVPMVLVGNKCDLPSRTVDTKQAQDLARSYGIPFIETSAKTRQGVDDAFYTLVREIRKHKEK
Chain of KRAS G12C (P62937 whole entry): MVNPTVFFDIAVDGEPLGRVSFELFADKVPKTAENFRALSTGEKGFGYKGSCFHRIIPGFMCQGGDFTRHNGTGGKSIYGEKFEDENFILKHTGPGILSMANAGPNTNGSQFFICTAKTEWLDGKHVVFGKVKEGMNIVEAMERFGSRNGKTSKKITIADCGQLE
Chain of KRAS WT (P01116 1-169 isoform P01116-2 limits assumed): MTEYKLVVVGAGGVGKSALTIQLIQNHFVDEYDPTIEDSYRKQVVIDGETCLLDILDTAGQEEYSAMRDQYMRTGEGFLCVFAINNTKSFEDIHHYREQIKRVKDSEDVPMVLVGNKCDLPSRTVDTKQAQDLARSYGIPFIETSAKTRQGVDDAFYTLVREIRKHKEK
Chain of KRAS WT (P62937 whole entry): as the sequence (P62937 whole entry) above
Chain of NRAS G12C (P01111 whole entry G12C): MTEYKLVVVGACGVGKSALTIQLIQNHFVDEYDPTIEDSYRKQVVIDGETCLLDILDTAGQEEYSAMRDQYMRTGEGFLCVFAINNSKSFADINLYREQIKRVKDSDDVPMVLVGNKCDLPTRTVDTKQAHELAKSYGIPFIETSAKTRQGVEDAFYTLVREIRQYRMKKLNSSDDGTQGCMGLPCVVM
Chain of NRAS G12C (P62937 whole entry): as the sequence (P62937 whole entry) above
Chain of KRAS G12V (P01116 1-169 isoform P01116-2 G12V limits assumed): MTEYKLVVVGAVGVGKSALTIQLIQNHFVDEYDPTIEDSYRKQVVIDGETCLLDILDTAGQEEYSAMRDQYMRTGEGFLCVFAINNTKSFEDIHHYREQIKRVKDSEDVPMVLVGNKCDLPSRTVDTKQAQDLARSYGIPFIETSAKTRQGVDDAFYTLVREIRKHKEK
Chain of KRAS G12V (P62937 whole entry): as the sequence (P62937 whole entry) above
Chain of KRAS G12S (P01116 1-169 isoform P01116-2 G12S limits assumed): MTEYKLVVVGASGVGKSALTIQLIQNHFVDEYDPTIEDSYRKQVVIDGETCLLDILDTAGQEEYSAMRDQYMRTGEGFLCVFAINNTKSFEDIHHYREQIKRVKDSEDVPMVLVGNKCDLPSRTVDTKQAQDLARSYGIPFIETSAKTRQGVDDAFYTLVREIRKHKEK
Chain of KRAS G12S (P62937 whole entry): as the sequence (P62937 whole entry) above
Chain of KRAS G13C (P01116 1-169 isoform P01116-2 G13C limits assumed): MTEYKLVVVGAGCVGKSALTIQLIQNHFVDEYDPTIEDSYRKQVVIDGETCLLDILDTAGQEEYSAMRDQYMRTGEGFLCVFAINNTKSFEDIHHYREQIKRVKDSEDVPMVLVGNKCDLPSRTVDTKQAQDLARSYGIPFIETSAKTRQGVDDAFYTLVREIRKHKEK
Chain of KRAS G13C (P62937 whole entry): as the sequence (P62937 whole entry) above
Chain of KRAS G12D (P01116 1-169 isoform P01116-2 G12D limits assumed): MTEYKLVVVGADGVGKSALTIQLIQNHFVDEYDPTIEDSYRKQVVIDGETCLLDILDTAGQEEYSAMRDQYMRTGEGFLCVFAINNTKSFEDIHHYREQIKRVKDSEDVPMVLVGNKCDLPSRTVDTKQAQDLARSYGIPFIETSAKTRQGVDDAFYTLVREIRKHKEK
Chain of KRAS G12D (P62937 whole entry): as the sequence (P62937 whole entry) above
Chain of KRAS G13D (P01116 1-169 isoform P01116-2 G13D limits assumed): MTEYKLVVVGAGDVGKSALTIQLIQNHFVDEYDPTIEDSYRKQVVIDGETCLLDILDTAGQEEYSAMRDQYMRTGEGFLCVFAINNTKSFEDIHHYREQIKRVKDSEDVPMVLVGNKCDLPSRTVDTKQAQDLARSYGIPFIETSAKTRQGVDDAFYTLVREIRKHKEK
Chain of KRAS G13D (P62937 whole entry, the tested form may be a part): as the sequence (P62937 whole entry) above

CCn1c(-c2cccnc2[C@H](C)OC)c2c3cc(ccc31)-c1csc(n1)C[C@H](NC(=O)[C@H](C1CCCC1)N(C)C(=O)CN(C)C(=O)[C@H]1CN1)C(=O)N1CCC[C@H](N1)C(=O)OCC(C)(C)C2 [Example 132]
100 to 1000 nM: [3]; [11] | [8]; [16]
1000 to 10000 nM: [1]; [9] | [2]; [10] | [4]; [12] | [5]; [13] | [6]; [14] | [7]; [15]

CCn1c(-c2cccnc2[C@H](C)OC)c2c3cc(ccc31)-c1cc(O)cc(c1)C[C@H](NC(=O)[C@H](C(C)C)N(C)C(=O)N1CCN(C(=O)[C@H]3CN3)C(=O)C1)C(=O)N1CCC[C@H](N1)C(=O)OCC(C)(C)C2 [Example 143]
10 to 100 nM: [1]; [17] | [2]; [18] | [3]; [19] | [6]; [22] | [7]; [23] | [8]; [24]
100 to 1000 nM: [4]; [20] | [5]; [21]

CCn1c(-c2cccnc2[C@H](C)OC)c2c3cc(ccc31)-c1cc(O)cc(c1)C[C@H](NC(=O)[C@H](C(C)C)N(C)C(=O)CN(C)C(=O)[C@H]1CN1)C(=O)N1CCC[C@H](N1)C(=O)OCC(C)(C)C2 (single isomer, unassigned) [Example 42B]
1000 to 10000 nM: [1]; [9] | [2]; [10] | [4]; [12] | [5]; [13] | [7]; [15]
100 to 1000 nM: [3]; [11] | [6]; [14] | [8]; [16]

CCn1c(-c2cccnc2[C@H](C)OC)c2c3cc(ccc31)-c1cc(O)cc(c1)C[C@H](NC(=O)[C@H](C(C)C)N1CCC3(CN(C(=O)[C@H]4CN4)C3)C1=O)C(=O)N1CCC[C@H](N1)C(=O)OCC(C)(C)C2 [Example 115]
10 to 100 nM: [1]; [17] | [2]; [18] | [6]; [22]
< 10 nM: [3]; [19] | [8]; [24]
100 to 1000 nM: [4]; [20] | [5]; [21] | [7]; [23]

CCn1c(-c2cccnc2[C@H](C)OC)c2c3cc(ccc31)-c1cc(O)cc(c1)C[C@H](NC(=O)[C@H](C(C)C)N(C)C(=O)[C@@]1(F)CCN(C(=O)[C@@H]3CN3)C1)C(=O)N1CCC[C@H](N1)C(=O)OCC(C)(C)C2 (atropisomer, axis not shown) [Example 185]
10 to 100 nM: [3]; [19] | [6]; [22] | [8]; [24]
100 to 1000 nM: [1]; [17] | [2]; [18] | [4]; [20] | [5]; [21] | [7]; [23]

CCn1c(-c2cccnc2[C@H](C)OC)c2c3cc(ccc31)-c1cc(O)cc(c1)C[C@H](NC(=O)[C@H](C(C)C)N(C)C(=O)c1ccc(NC(=O)[C@@H]3CN3)cn1)C(=O)N1CCC[C@H](N1)C(=O)OCC(C)(C)C2 (atropisomer, axis not shown) [Example 187]
10 to 100 nM: [6]; [22]
100 to 1000 nM: [1]; [17] | [2]; [18] | [3]; [19] | [4]; [20] | [5]; [21] | [7]; [23] | [8]; [24]

CCn1c(-c2cccnc2[C@H](C)OC)c2c3cc(ccc31)-c1cc(O)cc(c1)C[C@H](NC(=O)[C@H](C(C)C)N(C)C(=O)[C@@]1(F)CCN(C(=O)[C@H]3CN3)C1)C(=O)N1CCC[C@H](N1)C(=O)OCC(C)(C)C2 [Example 171]
< 10 nM: [3]; [19] | [8]; [24]
10 to 100 nM: [1]; [17] | [2]; [18] | [4]; [20] | [5]; [21] | [6]; [22] | [7]; [23]

CCn1c(-c2cccnc2[C@H](C)OC)c2c3cc(ccc31)-c1cccc(c1)C[C@H](NC(=O)[C@H](C(C)C)N(C)C(=O)[C@H]1C[C@H](N=C=NCCOC)C1)C(=O)N1CCC[C@H](N1)C(=O)OCC(C)(C)C2 [Example 78]
10 to 100 nM: [3]; [19] | [6]; [22] | [8]; [24]
1000 to 10000 nM: [2]; [18] | [4]; [20] | [5]; [21] | [7]; [23]
> 10000 nM: [1]; [17]

CCn1c(-c2cccnc2[C@H](C)OC)c2c3cc(ccc31)-c1cc(O)cc(c1)C[C@H](NC(=O)[C@H](C(C)C)N(C)C(=O)C1CC3(C1)CN(C(=O)[C@@H]1CN1)C3)C(=O)N1CCC[C@H](N1)C(=O)OCC(C)(C)C2 [Example 180]
1000 to 10000 nM: [5]; [21]
100 to 1000 nM: [1]; [17] | [2]; [18] | [3]; [19] | [4]; [20] | [7]; [23] | [8]; [24]
10 to 100 nM: [6]; [22]

CCn1c(-c2cccnc2[C@H](C)OC)c2c3cc(ccc31)-c1cc(O)cc(c1)C[C@H](NC(=O)[C@H](C(C)C)N(C)C(=O)N1CCCN(C(=O)[C@@H]3CN3)CC1)C(=O)N1CCC[C@H](N1)C(=O)OCC(C)(C)C2 [Example 173]
10 to 100 nM: [1]; [17] | [2]; [18] | [3]; [19] | [4]; [20] | [5]; [21] | [6]; [22] | [7]; [23] | [8]; [24]

CCn1c(-c2cccnc2[C@H](C)OC)c2c3cc(ccc31)-c1cccc(c1)C[C@H](NC(=O)[C@H](C(C)C)N(C)C(=O)[C@H]1CC[C@H](N=C=NC(C)C)C1)C(=O)N1CCC[C@H](N1)C(=O)OCC(C)(C)C2 [Example 124]
10 to 100 nM: [3]; [19] | [6]; [22] | [8]; [24]
1000 to 10000 nM: [2]; [18] | [4]; [20] | [5]; [21]
> 10000 nM: [1]; [17] | [7]; [23]
